The values that follow come from patent US9282743B2, “Chemical compounds” (Syngenta Participations AG, priority 2011, dated 2016).

Holding throughout (assay type): in vivo
The subject of series [1] is Alopecurus myosuroides (ALOMY). The experiment in a line: Example B7: pre application on weeds, ALOMY. Particulars: 312 h, pre-emergence spray one day after sowing, evaluated after 13 days, read-out: Pre application on weeds, ALOMY (100=total damage to plant; 0=no damage to plant). The method, then: (§1) Lolium perenne (LOLPE), Alopecurus myosuroides (ALOMY), Echinochloa crus-galli (ECHCG) and Avena fatua (AVEFA). Activity Against Weeds Seeds of a variety of test species were sown in standard soil in pots. After cultivation for one day under controlled conditions in a glasshouse (at 24/16° C., day/night; 14 hours light; 65% humidity), the plants were sprayed with an aqueous spray solution derived from the formulation of the technical active ingredient in acetone/water (50:50) solution containing 0.5% Tween 20 (polyoxyethelyene sorbitan monolaurate, CAS RN 9005-64-5). The test plants were then grown in a glasshouse under controlled conditions in a glasshouse (at 24/16° C., day/night; 14 hours light; 65% humidity) and watered twice daily. After 13 days, the test was evaluated (100=total damage to plant; 0=no damage to plant).

The subject of series [2] is Echinochloa crus-galli (ECHCG). The experiment in a line: Example B6: post application on weeds, ECHCG. Particulars: 312 h, after 13 days, 100 = total damage, 0 = no damage, read-out: ECHCG damage to plant. The method, then: as §1, with “8 days” for “one day”
For series [3], the system named is Lolium perenne (LOLPE). The experiment in a line: Example B7: pre application on weeds, LOLPE. The conditions noted are these: 312 h, pre-emergence spray one day after sowing, evaluated after 13 days, read-out: Pre application on weeds, LOLPE (100=total damage to plant; 0=no damage to plant). The method, then:
as §1

Series [4] has as its system Avena fatua (AVEFA). Briefly: Example B7: pre application on weeds, AVEFA. The conditions noted are these: 312 h, pre-emergence spray one day after sowing, evaluated after 13 days, read-out: Pre application on weeds, AVEFA (100=total damage to plant; 0=no damage to plant). The method, then:
as §1

The subject of series [5] is Alopecurus myosuroides (ALOMY). Briefly: Example B6: post application on weeds, ALOMY. Particulars: 312 h, after 13 days, 100 = total damage, 0 = no damage, read-out: ALOMY damage to plant. The method, then: as §1, with “8 days” for “one day”
For series [6], the system named is Avena fatua (AVEFA). The experiment in a line: Example B6: post application on weeds, AVEFA. The conditions noted are these: 312 h, after 13 days, 100 = total damage, 0 = no damage, read-out: AVEFA damage to plant. The method, then: as §1, with “8 days” for “one day”
Series [7] has as its system Winter wheat (TRZAW). The experiment in a line: Example B8: post application on wheat, with and without safener cloquintocet-mexyl. The conditions noted are these: after 13 days, 100 = total damage, 0 = no damage. The method, then: Application with Safener (Cloquintocet-Mexyl) Winter wheat seeds with a seed treatment of cloquintocet-mexyl applied at a rate of 0.5 g/kg seeds were sown in standard soil in pots. After cultivation for 8 days under controlled conditions in a glasshouse (at 24/16° C., day/night; 14 hours light; 65% humidity), the plants were sprayed with an aqueous spray solution derived from the formulation of the technical active ingredient in acetone/water (50:50) solution containing 0.5% Tween 20 (polyoxyethelyene sorbitan monolaurate, CAS RN 9005-64-5). The test plants were then grown in a glasshouse under controlled conditions in a glasshouse (at 24/16° C., day/night; 14 hours light; 65% humidity) and watered twice daily. After 13 days, the test was evaluated (100=total damage to plant; 0=no damage to plant).

Series [8] concerns Lolium perenne (LOLPE). Briefly: Example B6: post application on weeds, LOLPE. Particulars: 312 h, after 13 days, 100 = total damage, 0 = no damage, read-out: LOLPE damage to plant. The method, then: as §1, with “8 days” for “one day”
The subject of series [9] is Echinochloa crus-galli (ECHCG). The experiment in a line: Example B7: pre application on weeds, ECHCG. Particulars: 312 h, pre-emergence spray one day after sowing, evaluated after 13 days, read-out: Pre application on weeds, ECHCG (100=total damage to plant; 0=no damage to plant). The method, then:
as §1

[10] abbreviates: 250 g/ha + 0.5 g/kg seeds cloquintocet-mexyl.
Where [11] appears, read: 62.5 g/ha + 0.5 g/kg seeds cloquintocet-mexyl.

On to `CON1CCn2c(OC(=O)C(C)(C)C)c(-c3c(C)cc(C)cc3C)c(=O)n2CC1` [Compound P1.1, 2,2-Dimethyl-propionic acid 3-methoxy-9-oxo-8-(2,4,6-trimethyl-phenyl)-2,3,4,5-tetrahydro-1H,9H-pyrazolo[1,2-a][1,2,5]triazepin-7-yl ester], for which the pest or weed control at 250 g/ha in series [1] stood at 90%; in [2], 100%; in series [3], 100%; in series [4] it was 50%; in [5] it was 100%; in series [6], 100%. The pest or weed control at 250 g/ha in [8] was determined as 100%; in series [9], 20%. The “TRZAW damage to plant” value in [7] (setting [10]) is listed as 50; in series [7] (250 g/ha, without safener), 70.

On to `CCOC(=O)Oc1c(-c2c(C)cc(C)cc2C)c(=O)n2n1CCN(OC)CC2` [Compound P1.2, Carbonic acid ethyl ester 3-methoxy-9-oxo-8-(2,4,6-trimethyl-phenyl)-2,3,4,5-tetrahydro-1H,9H-pyrazolo[1,2-a][1,2,5]triazepin-7-yl ester], for which the pest or weed control at 250 g/ha came out at 80% in series [1]; 100% in series [2]; 90% in [3]; 80% in [4]; 50% in series [5]; 100% in series [6]. Besides, the pest or weed control at 250 g/ha turned out to be 100% in series [8] and 40% in series [9]. The “TRZAW damage to plant” value in series [7] (setting [10]) was found to be 30; in series [7] (250 g/ha, without safener), 80.

In the case of `CCOC(=O)Oc1c(-c2c(C)cc(Cl)cc2C)c(=O)n2n1CCN(OC)CC2` [Compound P1.3], the pest or weed control at 250 g/ha is 0% in series [1]; 60% in [2]; 10% in [3]; 0% in [4]; 80% in series [5]; 80% in series [6]. In addition, the pest or weed control at 250 g/ha stood at 60% in series [8] and 20% in [9]. The “TRZAW damage to plant” value in series [7] (setting [10]) came to 20; in [7] (250 g/ha, without safener) it was 70.

Turning to `C#Cc1cc(C)cc(C)c1-c1c(OC(=O)OCC)n2n(c1=O)CCN(OC)CC2` [Compound P1.5], the pest or weed control at 250 g/ha in [1] turned out to be 40%; in series [2], 100%; in [3], 30%; in series [4] it was 90%; in series [5], 100%; in [6] it was 100%. In addition, the pest or weed control at 250 g/ha in [8] amounted to 90%; in [9], 20%. For the same molecule, the “TRZAW damage to plant” value is listed as 20 in [7] (setting [11]) and 80 in series [7] (62.5 g/ha, without safener).

Regarding `CCOC(=O)Oc1c(-c2cc(-c3ccc(Cl)cc3)ccc2C)c(=O)n2n1CCN(OC)CC2` [Compound P1.7], the pest or weed control at 250 g/ha in [1] stood at 0%; in series [2], 80%; in [3], 0%; in series [4], 0%; in [5] it was 70%; in [6] it was 100%. For the same molecule, the pest or weed control at 250 g/ha in series [8] is 70%; in [9], 0%. The “TRZAW damage to plant” value in series [7] (setting [11]) is given as 40; in [7] (62.5 g/ha, without safener) it was 80.

For the molecule `C#Cc1cc(C)c(-c2c(OC(=O)OCC)n3n(c2=O)CCN(OC)CC3)c(C)c1` [Compound P1.8], the pest or weed control at 250 g/ha in series [1] is 0%; in series [2], 70%; in series [3], 0%; in series [4], 20%; in series [5], 80%; in series [6], 80%. The pest or weed control at 250 g/ha in series [8] was 40%; in [9], 20%. Moreover, the “TRZAW damage to plant” value in series [7] (setting [10]) is listed as 20; in series [7] (250 g/ha, without safener) it was 60.
